# From US20260014227A1, “DESLORELIN USE IN CHEMICAL CASTRATION OF A NON-HUMAN MAMMAL RELATED TO PK/PD INTERACTION” (priority 2022, published 2026)
# Several values for one entry are separate records, joined by “and”; a condition that tells them apart may be missing. Identical values can stand only once.
# Columns and labels:
# male dogs = conditions: cited from earlier work
# testosterone, LH and FSH = test: in vivo; assay type: in vivo, dog; conditions: assessed graphically
# in vivo [1] = assay type: in vivo, dog; conditions: male, dog, in vivo, 4.7 mg
# [2] = in vivo
# Procedure: Samples were collected from 10 intact male cats treated with Suprelorin® 4.7 implant. Samples (based on a plasma volume of 150 μL, treated with K2-EDTA as anticoagulant) were analyzed by a LC-MS/MS method after a solid extraction phase using μElution Oasis® WCX plates. The compound (13C, 15N)-Leu (7)-deslorelin was used as a standard. The calibration range was 4 pg/mL-2000 pg/mL.
# prepubertal bitches = conditions: cited from earlier work
# cat = test: Safety study in cat, high dose; assay type: in vivo
# male cats = test: Cat field studies 1 and 2: suppression of fertility, reversibility, behaviour, safety (Example 12); assay type: in vivo
# Source text: The efficacy and safety of the re-implantation was followed-up for these supplementary 12 months, i.e. for a total of 24 months.
# The observation schedule was as follows: • Study 1: V1: Day −14 to −7; V2: Day 0; V3: 1.5 months±3 days; V4: 3 months±5 days, V5: 6 months±5 days, V6: 9 months±5 days; V7: 12 months #5 days; • Study 2: V8: 12 months±3 days; V9: 13.5 months±3 days; V10: 15 months±5 days; V11: 18 months±5 days; V12: 21 months±5 days; V13: 24 months±5 days.
# Regarding the enrolment criteria, in both studies the criteria were as the following: • Domestic Cats • Age >3 MONTHS old or >15 MONTHS in Study 2 • Intact Indoor males • Client-owned (including shelter cats/rehomed by foster families)
# In these studies the following primary endpoints were measured: • For Study 1: the suppression of fertility (Testosterone≤0.10 ng/ml* from V4 until V7*-3 to 12 months) • Study 2: the suppression of fertility (Testosterone≤0.10 ng/mL*from V8 until V13 (12 to 24 months) and the time to reversion effect. […]
# in vivo [3] = conditions: male, dog, 4.7 mg
# [4] = design: species or system cat; conditions: in vivo
# Procedure: • study period: D0-560 (18 months)· • n=20 adults, sexually mature intact male cats • blinded, randomized • Suprelorin® group: n=16=>4.7 mg Suprelorin® SC, neck • Control group: n=4=>0.5 ml saline SC, neck
# Blood samples were collected from 16 healthy, intact male cats that had received a deslorelin implant. Samples were analyzed using a validated liquid chromatography coupled to tandem mass spectrometry (LC-MS/MS) method after solid extraction using Oasis® WCX uElution plate. […] Concentrations measured below the lower limit of quantification (LLOQ) of 4 pg/mL were reported as BLQ (Below the Limit of Quantification).
# Non-compartmental pharmacokinetic analysis of individual deslorelin concentrations in feline plasma was performed using Phoenix® software (WinNonlin 8.0, NLME 1.6, Certara L. P., Pharsight, St. Louis, MO, USA) to estimate the pharmacokinetic parameters of deslorelin.
# testosterone = test: Correlation between deslorelin and testosterone concentration (Example 4); assay type: in vivo, cat; conditions: 16 male cats, 4.7 mg implant; assessed graphically
# Procedure: The serum concentration of testosterone was measured according to the protocol detailed in example 2, point 2.1.
# The plasmatic concentration of deslorelin was measured according to the protocol detailed in example 1, point 1.1.
# intact male cats [5] = test: Testicular size by calipers (Example 7); assay type: in vivo, cat; conditions: treated cats
# prepubertal female dogs = test: Delay of puberty onset in prepubertal female dogs (Example 14); assay type: in vivo, dog
# Source text: The aim of this study was to evaluate the delay of puberty onset in prepubertal female dogs. As known the puberty begins with the setting up of several parameters: • Increasing number of receptors in central nervous system (CNS) and gonads • Desensitization of hypothalamus/pituitary towards estrogens • Ripening of the gonads and the secondary sexual organs • Follicle ripening, spermatogenesis
# intact male cats [6] = test: PK/PD preclinical study in 15-week-old male cats: penile spines, behaviour, puberty, reversal (Example 13); assay type: in vivo, cat; conditions: treated at 15 weeks of age
# Source text: On D14, the three spare cats were removed from the study. Five+3 female cats (Group 3), pubescent at study start, were included in the study solely to assess the reproductive behavior of male cats. They were not treated with the implant. • Duration: 18 Study Months post-injection (PI) (D502/Week 72, i.e., 16.5 calendar months)
# [7] = dog, in vivo
smiles,measurement,setting,value
CCNC(=O)[C@@H]1CCCN1C(=O)[C@H](CCCN=C(N)N)NC(=O)[C@H](CC(C)C)NC(=O)[C@@H](Cc1c[nH]c2ccccc12)NC(=O)[C@H](Cc1ccc(O)cc1)NC(=O)[C@H](CO)NC(=O)[C@H](Cc1c[nH]c2ccccc12)NC(=O)[C@H](Cc1cnc[nH]1)NC(=O)[C@@H]1CCC(=O)N1 [deslorelin],Presence of deslorelin,"male dogs; dog, in vivo",2.5 months
same,Duration of observed effect,male dogs; dogs,at least 6 months
same,Persistent pharmacological effect by plasma testosterone,male dogs; following administration,at least 12 months
same,Deslorelin concentration below which testosterone/LH/FSH concentrations started to increase,"testosterone, LH and FSH",12 pg/mL and < 12 pg/mL
same,level at 5376 h,in vivo [1],12 ± 10.4 pg/mL
same,Time deslorelin remains in the blood,[2],up to 497 days
same,Delay of puberty,prepubertal bitches; prepubertal bitch,at least 4.5 months
same,"Progesterone (P4), mean",prepubertal bitches; prepubertal bitches,0.6 ± 0.2 ng/mL
same,Safety findings,cat,neither serious adverse events nor live threatening events
same,Duration of effective chemical castration,male cats; male cats,at least 12 months
same,Onset of efficacy in behavioral reduction,male cats; sexual behaviors,7 to 31 days
same,level at 10584 h,in vivo [3],2 pg/mL
same,Time deslorelin remains present in the blood,[4],up to 560 days
same,Deslorelin concentration below which testosterone started to increase,testosterone,< 12 pg/mL
same,Effect on testicular volume,intact male cats [5],induced a decrease in testicular volume
same,Findings in prepubertal female dogs,prepubertal female dogs; with 1 implant,"no disturbance of body development, the vulva size was normal, but delayed epiphyseal closure"
same,Findings in prepubertal female dogs,prepubertal female dogs; with 3 implants every 4.5 Mo,vulva stayed juvenile and the effect was comparable to prepubertal castration
same,Duration of delay of puberty onset,intact male cats [6],at least 1 year
same,Study day until which plasma deslorelin was quantifiable,[7],441
